# Assay results as given in US8114877B2, “Organic compounds” (Novartis AG, priority 2005, dated 2012).
# pKi: −log10 of the molar value. Structures can show the parent of a compound that is named as a salt.
# Target: adenosine A2A receptor (Homo sapiens, UniProt P29274)
# Experiment: adenosine A2A receptor agonist assay, method of Murphree et al, Molecular Pharmacology 61, 455-462 (2002)
# Assay type: binding
# Conditions: method of L. J. Murphree et al
# Text: Compounds of formula I and their pharmaceutically acceptable salts are useful as pharmaceuticals. In particular, they activate the adenosine A2A receptor, i.e. they act as A2A receptor agonists.
# Sequence of adenosine A2A receptor (P29274 whole entry): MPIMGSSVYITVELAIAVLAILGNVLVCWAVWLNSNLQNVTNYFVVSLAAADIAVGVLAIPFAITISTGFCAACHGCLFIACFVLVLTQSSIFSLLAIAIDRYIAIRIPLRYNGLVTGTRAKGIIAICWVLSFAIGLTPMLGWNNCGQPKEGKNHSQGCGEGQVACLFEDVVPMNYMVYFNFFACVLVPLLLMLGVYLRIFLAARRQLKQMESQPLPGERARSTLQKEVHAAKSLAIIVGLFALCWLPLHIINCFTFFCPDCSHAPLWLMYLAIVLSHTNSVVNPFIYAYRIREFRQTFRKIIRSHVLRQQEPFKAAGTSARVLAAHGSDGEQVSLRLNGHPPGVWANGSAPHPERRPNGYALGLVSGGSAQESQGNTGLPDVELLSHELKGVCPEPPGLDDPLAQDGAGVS
smiles,measurement,value
"Cc1nnn([C@H]2C[C@@H](n3cnc4c(NCC(c5ccccc5)c5ccccc5)nc(N[C@@H]5CCNC5)nc43)[C@H](O)[C@@H]2O)n1 [Example 7, (1R,2S,3R,5S)-3-[6-(2,2-Diphenyl-ethylamino)-2-((R)-pyrrolidin-3-ylamino)-purin-9-yl]-5-(5-methyl-tetrazol-2-yl)-cyclopentane-1,2-diol trifluoroacetate]",pKi,7.37
"NC1CCC(Nc2nc(NCC(c3ccccc3)c3ccccc3)c3ncn(C4CC(n5cccn5)C(O)C4O)c3n2)CC1 [Example 12, (1R,2S,3R,1S)-3-[2-(4-Amino-cyclohexylamino)-6-(2,2-diphenyl-ethylamino)-purin-9-yl]-5-pyrazol-1-yl-cyclopentane-1,2-diol]",pKi,6.57
